Here are results for 17 molecules from patent US5482960A, “Nonpeptide endothelin antagonists” (Warner-Lambert Company, priority 1994, dated 1996).

One assay concerns the target T1, recombinant human ETA R (Homo sapiens, UniProt P25101).
T1 construct: expressed in transfected cells; host or cells: Ltk- cells (membranes)
T1 sequence (P25101 21-427): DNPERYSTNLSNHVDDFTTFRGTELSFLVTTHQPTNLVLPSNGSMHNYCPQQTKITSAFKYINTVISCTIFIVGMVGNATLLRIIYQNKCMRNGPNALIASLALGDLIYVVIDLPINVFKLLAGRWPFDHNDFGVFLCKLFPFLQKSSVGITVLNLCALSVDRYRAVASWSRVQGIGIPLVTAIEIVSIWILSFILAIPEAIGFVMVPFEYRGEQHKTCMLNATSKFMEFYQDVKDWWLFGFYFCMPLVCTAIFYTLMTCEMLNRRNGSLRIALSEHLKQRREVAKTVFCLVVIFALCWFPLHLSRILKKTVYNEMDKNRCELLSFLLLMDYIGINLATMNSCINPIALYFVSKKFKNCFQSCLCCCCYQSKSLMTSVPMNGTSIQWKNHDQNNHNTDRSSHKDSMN
Format: binding. Particulars: [125I]-ET-1 40 pM, 2 hours at 37° C., Ltk- cells, read-out: HERBA-A IC50. As for the experimental part:
(§1) Membranes were prepared from cultured cells by lysing cells in cold lysis buffer (5 mM HEPES, 2 mM EDTA, pH 7.4) and homogenizing with a Dounce "A" homogenizer. The homogenate was centrifuged at 30,000×g for 20 min at 4° C. […] Radioligand and competing ligands were prepared in binding buffer containing 20 mM Tris, 2 mM EDTA, and 0.1% BSA.

The target in a further assay is T2, recombinant human ETB R (Homo sapiens, UniProt P24530).
T2 construct: expressed in transfected cells; host or cells: CHO-K1 cells (membranes)
T2 sequence (P24530 27-442): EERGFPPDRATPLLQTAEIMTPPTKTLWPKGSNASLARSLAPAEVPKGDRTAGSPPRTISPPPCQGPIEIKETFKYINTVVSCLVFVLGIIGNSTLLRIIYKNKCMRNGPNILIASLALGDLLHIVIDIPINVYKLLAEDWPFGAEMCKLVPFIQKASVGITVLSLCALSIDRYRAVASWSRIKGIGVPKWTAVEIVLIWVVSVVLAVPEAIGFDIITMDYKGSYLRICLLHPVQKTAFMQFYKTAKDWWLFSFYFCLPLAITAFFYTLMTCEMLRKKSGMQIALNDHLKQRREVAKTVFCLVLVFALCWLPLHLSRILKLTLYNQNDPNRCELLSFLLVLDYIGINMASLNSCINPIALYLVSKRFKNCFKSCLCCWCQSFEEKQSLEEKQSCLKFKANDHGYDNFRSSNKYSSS
The assay is classed as binding. Particulars: [125I]-ET-1 40 pM, 2 hours at 37° C., CHO-K1 cells, read-out: HERBA-B IC50. As for the experimental part:
as §1

The target of assay [1] is T3, rabbit femoral artery (ETA) (Oryctolagus cuniculus, UniProt A5A8K3).
T3 construct: Femoral and pulmonary arteries were isolated, cleaned of connective tissue, and cut into 4-mm rings; from tissue; host or cells: rabbit femoral artery rings, endothelium denuded
T3 sequence (A5A8K3 21-427): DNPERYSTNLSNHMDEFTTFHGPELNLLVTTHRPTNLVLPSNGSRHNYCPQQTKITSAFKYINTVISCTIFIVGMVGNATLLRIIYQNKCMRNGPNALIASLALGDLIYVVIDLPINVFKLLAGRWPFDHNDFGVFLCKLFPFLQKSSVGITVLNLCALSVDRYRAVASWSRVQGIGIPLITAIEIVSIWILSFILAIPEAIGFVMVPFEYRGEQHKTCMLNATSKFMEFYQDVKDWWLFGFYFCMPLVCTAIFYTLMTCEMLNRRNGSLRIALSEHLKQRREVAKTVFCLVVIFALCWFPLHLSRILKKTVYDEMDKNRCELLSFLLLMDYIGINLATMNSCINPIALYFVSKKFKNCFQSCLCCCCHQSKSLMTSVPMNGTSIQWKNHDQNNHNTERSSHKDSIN
Briefly: In vitro antagonism of ET-1 stimulated vasoconstriction (VERA-A) in the rabbit femoral artery (ETA). The assay is classed as cell-based. As for the experimental part:
(§2) Male New Zealand rabbits were killed by cervical dislocation and exsanguination. Femoral and pulmonary arteries were isolated, cleaned of connective tissue, and cut into 4-mm rings. The endothelium was denuded by placing the rings over hypodermic tubing (32 gauge for femoral rings and 28 gauge for pulmonary rings, Small Parts, Inc, Miami, Fla.) and gently rolling them. […] Resting tension was adjusted to 3.0 g for femoral and 4.0 g pulmonary arteries; the rings were left for 90 minutes to equilibrate.

The target of assay [2] is T4, rabbit pulmonary artery (ETB) (Oryctolagus cuniculus, UniProt Q9N0W7).
T4 construct: Femoral and pulmonary arteries were isolated, cleaned of connective tissue, and cut into 4-mm rings; from tissue; host or cells: rabbit pulmonary artery rings, endothelium denuded
T4 sequence (Q9N0W7 27-441): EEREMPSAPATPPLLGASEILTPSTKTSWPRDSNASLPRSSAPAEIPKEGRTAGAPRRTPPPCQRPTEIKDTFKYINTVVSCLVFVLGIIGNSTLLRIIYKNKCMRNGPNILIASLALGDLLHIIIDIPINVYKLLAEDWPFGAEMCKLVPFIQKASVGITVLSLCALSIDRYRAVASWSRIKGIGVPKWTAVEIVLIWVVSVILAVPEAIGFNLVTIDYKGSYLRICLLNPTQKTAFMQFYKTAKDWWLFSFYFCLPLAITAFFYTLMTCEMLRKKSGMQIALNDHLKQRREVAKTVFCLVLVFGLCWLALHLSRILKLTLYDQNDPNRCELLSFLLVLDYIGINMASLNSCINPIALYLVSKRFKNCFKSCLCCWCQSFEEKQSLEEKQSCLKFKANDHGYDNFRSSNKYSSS
Briefly: Antagonism of sarafotoxin 6c stimulated vasoconstriction in the rabbit pulmonary artery (ETB) (VERA-B). Format: cell-based. As for the experimental part:
as §2

For assay [3], the target named is T5, ETA (rabbit renal artery vascular smooth muscle cells) (Oryctolagus cuniculus, UniProt A5A8K3).
T5 construct: rabbit renal artery vascular smooth muscle cells (ERBA-A); endogenous in cells; host or cells: cultured rabbit renal artery vascular smooth muscle cells (membranes)
T5 sequence (A5A8K3 21-427): T3 sequence (A5A8K3 21-427)
Format: binding. Particulars: [125I]-ET-1 40 pM, 2 hours at 37° C.; read-out: ERBA-A IC50 (converted). As for the experimental part:
The compounds of Formula I are valuable antagonists of endothelin. […] Membranes were prepared from cultured cells by lysing cells in cold lysis buffer (5 mM HEPES, 2 mM EDTA, pH 7.4) and homogenizing with a Dounce "A" homogenizer. The homogenate was centrifuged at 30,000×g for 20 min at 4° C. […] Radioligand and competing ligands were prepared in binding buffer containing 20 mM Tris, 2 mM EDTA, and 0.1% BSA. Competing binding assays were initiated by combining membranes, [125I]-ET-1 (40 pM) and the competing ligand in a final volume of 250 uL and incubating for 2 hours at 37° C.

As for `CCCOc1ccc2c(Sc3cccc(OC)c3)c(C(=O)O)n(Cc3ccc4c(c3)OCO4)c2c1` [Example 10, 1-Benzo[1,3]dioxol-5-ylmethyl-3-(3-methoxy-phenylsulfanyl)-6-propoxy-1H-indole-2-carboxylic acid], the figures for the IC50 on recombinant human ETA R and on recombinant human ETB R were 590 nM and 6700 nM, respectively.

`COc1cc2c(Sc3cc(OC)c(OC)c(OC)c3)c(C(=O)O)n(Cc3ccc4c(c3)OCO4)c2cc1OC` [Example 14, 1-Benzo[1,3]dioxol-5-ylmethyl-5,6-dimethoxy-3-(3,4,5-trimethoxy-phenylsulfanyl)-1H-indole-2-carboxylic acid]: the IC50 was 31.6 nM in assay [1] and 3160 nM in assay [2].

In the case of `COc1cccc(Sc2c(C(=O)O)n(Cc3ccc4c(c3)OCO4)c3cc4c(cc23)OCO4)c1` [Example 6, 5-Benzo[1,3]dioxol-5-ylmethyl-7-(3-methoxy-phenylsulfanyl)-5H-[1,3]dioxolo[4,5-f]indole-6-carboxylic acid], the IC50 is 84 nM on recombinant human ETA R and 710 nM at recombinant human ETB R.

For the molecule `COc1ccc(Cn2c(C(=O)O)c(Sc3cccc(OC)c3)c3cc(OC)c(OC)cc32)cc1` [Example 12, 5,6-Dimethoxy-1-(4-methoxy-benzyl)-3-(3-methoxy-phenylsulfanyl)-1H-indole-2-carboxylic acid], the figures for the concentration for half-maximal inhibition (IC50) at recombinant human ETA R and on recombinant human ETB R were 160 nM and 870 nM, respectively.

`COc1cccc(Sc2c(C(=O)O)n(Cc3cc(OC)c4c(c3)OCO4)c3cc(OC)c(OC)cc23)c1` [Example 11, 5,6-Dimethoxy-1-(7-methoxy-benzo[1,3]dioxol-5-ylmethyl)-3-(3-methoxy-phenylsulfanyl)-1H-indole-2carboxylic acid]: the results for the IC50 on recombinant human ETA R and at recombinant human ETB R were 58 nM and 1100 nM, respectively.

For `COc1cc2c(Sc3ccc4c(c3)OCO4)c(C(=O)O)n(Cc3ccc4c(c3)OCO4)c2cc1OCc1ccccc1` [Example 15, 1-Benzo[1,3]dioxol-5-ylmethyl-3-(benzo[1,3]dioxol-5-ylsulfanyl)-6-benzyloxy-5-methoxy-1H-indole-2-carboxylic acid], the results for the IC50 at recombinant human ETA R and on recombinant human ETB R were 690 nM and 53 nM, respectively.

`O=C(O)c1c(Sc2ccc3c(c2)OCO3)c2ccccc2n1Cc1ccc2c(c1)OCO2` [Example 5, 1-Benzo[1,3]dioxol-5-ylmethyl-3-(benzo[1,3]dioxol-5-ylsulfanyl)-1H-indole-2-carboxylic acid]: the IC50 in assay [3] is 570 nM; on recombinant human ETA R, 380 nM; on recombinant human ETB R, 4500 nM.

As for `COc1cccc(Sc2c(C(=O)O)n(Cc3ccc(OC)cc3OCC(=O)O)c3cc(OC)c(OC)cc23)c1` [Example 16, 1-(2-Carboxymethoxy-4-methoxy-benzyl)-5,6-dimethoxy-3-(3-methoxy-phenylsulfanyl)-1H-indole-2carboxylic acid], the IC50 on recombinant human ETA R is 480 nM; on recombinant human ETB R, 1200 nM.

On to `COc1cc2c(Sc3ccc4c(c3)OCO4)c(C(=O)O)n(Cc3ccc4c(c3)OCO4)c2cc1OC` [Example 17, 1-Benzo[1,3]dioxol-5-ylmethyl-3-(benzo[1,3]dioxol-5-ylsulfanyl)-5,6-dimethoxy-1H-indole-2-carboxylic acid], for which the values for the IC50 in assay [1] and in assay [3] were 50.1 nM and 631 nM, respectively.

As to `COc1ccc(Sc2c(C(=O)O)n(Cc3cc(OC)c4c(c3)OCO4)c3cc4c(cc23)OCO4)cc1OC` [Example 9, 7-(3,4-Dimethoxy-phenylsulfanyl)-5-(7-methoxy-benzo[1,3]dioxol-5-ylmethyl)-5H-[1,3]dioxolo[4,5-f]indole-6-carboxylic acid], the figures for the IC50 on recombinant human ETA R and on recombinant human ETB R were 170 nM and 420 nM, respectively.

In the case of `COc1cccc(Sc2c(C(=O)O)n(Cc3ccc4c(c3)OCO4)c3cc(OC)c(OCc4ccccc4)cc23)c1` [Example 13, 1-Benzo[1,3]dioxol-5-ylmethyl-5-benzyloxy-6-methoxy-3-(3-methoxy-phenylsulfanyl)-1H-indole-2-carboxylic acid], the values for the IC50 on recombinant human ETA R and at recombinant human ETB R were 81 nM and 690 nM, respectively.

As for `O=C(O)c1c(Sc2ccccc2)c2ccccc2n1-c1ccc2c(c1)OCO2` [Example 1, 1-Benzo-[1,3]dioxol-5-yl-3-phenylsulfanyl-1H-indole-2-carboxylic acid], the IC50 in assay [3] was 1900 nM; at recombinant human ETA R, 3200 nM; at recombinant human ETB R it was 6500 nM.

Consider `COc1ccc(Sc2c(C(=O)O)n(Cc3ccc4c(c3)OCO4)c3cc4c(cc23)OCO4)cc1OC` [Example 8, 5-Benzo [1,3]dioxo1-5-ylmethyl-7-(3,4-dimethoxyphenylsulfanyl)-5H-[1,3]dioxolo[4,5-f]indole-6-carboxylicacid], for which the IC50 in assay [1] was 316 nM; on recombinant human ETA R, 39 nM; on recombinant human ETB R, 170 nM; in assay [2], 316 nM.

Regarding `COc1cccc(Sc2c(C(=O)O)n(Cc3ccc4c(c3)OCO4)c3ccccc23)c1` [Example 3, 1-Benzo[1,3]dioxol-5-ylmethyl-3-(3-methoxy-phenylsulfanyl)-1H-indole-2-carboxylic acid], the figures for the half-maximal inhibitory concentration (IC50) (in assay [3]; on recombinant human ETA R; on recombinant human ETB R) were 500 nM, 90 nM and 7400 nM, respectively.

For `COc1cccc(Sc2c(C(=O)O)n(Cc3ccccc3)c3ccccc23)c1` [Example 4, 1-Benzyl-3-(3-methoxy-phenylsulfanyl)-1H-indole-2carboxylic acid], the values for the IC50 (in assay [3]; at recombinant human ETA R; on recombinant human ETB R) were 7300 nM, 4600 nM and 1500 nM, respectively.

On to `COc1cccc(Sc2c(C(=O)O)n(Cc3ccc4c(c3)OCO4)c3cc(OC)c(OC)cc23)c1` [Example 2], for which the IC50 is 100 nM in assay [1], 30 nM in assay [3] and 1100 nM on recombinant human ETB R.

Turning to `COc1cccc(Sc2c(C(=O)O)n(Cc3cc(OC)c4c(c3)OCO4)c3cc4c(cc23)OCO4)c1` [Example 7, 5-(7-Methoxy-benzo[1,3]dioxol-5-ylmethyl)-7-(3-methoxy-phenylsulfanyl)-5H-[1,3]dioxolo[4,5-f]indole-6carboxylic acid], the IC50 at recombinant human ETA R worked out at 380 nM; on recombinant human ETB R, 2900 nM.
